One may read the IC50 as the concentration that inhibits the measured activity by half.

This note sets out measurements from US20240368145A1, “METHODS FOR TREATING CANCER” (IMMUNIC AG, priority 2021, published 2024).

What all share (format): cell-based
One assay deals with ATAD2/ANCCA mRNA. Nature of the assay: Expression of AR target genes (qRT-PCR) in 22Rv1: ATAD2/ANCCA. To be noted: 22Rv1, 1 μM, 48h; relative to vehicle control (DMSO). On the procedure:
The prostate cancer cell line 22Rv1 was treated for 48h with 1 μM Example compound 1, 1/1, 2/1, 2/2, 2/3, 2/4, 2/5, 2/6, 2/7, 2/8, 2/9 and 2/10 and reference compounds SR2211 and XY018. RNA was extracted using the RNA isolation kit XS (Macherey-Nagel) and following the manufacture's manual. RNA quantity was measured with the Nanodrop before reverse transcription using Superscript II (Invitrogen #100004925). For the quantitative real-time PCR with SYBR-Green (Qiagen #204074), the following primers were used:
qRT-PCR was performed using SYBR-Green (Qiagen #204074) reagents in a PCR cycler (Gorbett Research) Rotor Gene RG3000 with the following program: denaturation for 5′ at 95° C.; 40 cycles of 20″ at 95° C. and 15″ at 60° C.″ and at the end of the last cycle, the melting temperature of the products was determined by gradually increasing from 60° C. to 99° C. CT values from all samples were normalized to reference (housekeeping) genes using the mean CT value of the GAPDH and YWHAZ (reference genes). Next the values are put relative to the untreated control (vehicle/DMSO).

Another assay relates to OCIAML2 (AML). Nature of the assay: Oncotest inhibition of viability, OCIAML2. To be noted: Homo sapiens, OCI-AML2; AML cell line OCIAML2; read-out: IC50 range.
A further assay deals with MV411 (AML). Nature of the assay: Oncotest inhibition of viability, MV411. To be noted: Homo sapiens, MV4-11; AML cell line MV411; read-out: IC50 range.
A further assay has as its system JURLMK1 (CML). Nature of the assay: Oncotest inhibition of viability, JURLMK1. Conditions: CML cell line JURLMK1; read-out: IC50 range.

Take `CC(C)(O)CCn1ncc(-c2onc(-c3c(F)cccc3Cl)c2-c2ncccn2)c1C(F)(F)F` [2/8]: in the assay on ATAD2/ANCCA mRNA, the “ATAD2/ANCCA mRNA expression” value was 0.817.
Consider `COC(=O)c1c(-c2c(F)cccc2Cl)noc1-c1cnn(-c2cccc(Cl)c2)c1C(F)(F)F` [Example 1, Methyl 3-(2-chloro-6-fluorophenyl)-5-(1-(3-chlorophenyl)-5-(trifluoromethyl)-1H-pyrazol-4-yl)isoxazole-4-carboxylate], for which the IC50 in the assay on OCIAML2 (AML) is 10 to 100 nM; in the assay with MV411 (AML), less than 10 nM; with JURLMK1 (CML), less than 10 nM.
